What was measured:
[1] = target: human CD28 Protein, His Tag (Homo sapiens, UniProt P10747); assay: MST / TRIC; assay type: binding
[2] = target: Biotinylated human CD28 protein (His-tagged, AviTag) (Homo sapiens, UniProt P10747); assay: SPR; assay type: binding
Sequence of Biotinylated human CD28 protein (His-tagged, AviTag) (P10747 19-152 limits assumed): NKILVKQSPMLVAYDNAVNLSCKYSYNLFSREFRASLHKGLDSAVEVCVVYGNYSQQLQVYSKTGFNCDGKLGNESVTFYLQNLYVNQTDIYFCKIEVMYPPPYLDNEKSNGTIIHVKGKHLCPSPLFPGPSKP

Sequence of human CD28 Protein, His Tag (P10747 19-152): as the sequence (P10747 19-152 limits assumed) above

Structure (SMILES) | Kd [1] [µM] | Kd [2] [µM]
O=C(Cc1ccccc1)c1cc(O)c(O)c([N+](=O)[O-])c1 [1F19, Nebicapone] | 45.1 ± 68.9 | 
CCN(CC)C(=O)/C(C#N)=C/c1cc(O)c(O)c([N+](=O)[O-])c1 [1I03, Entacapone] | 45.6 ± 52.1 | 
CN1c2ccc([N+](=O)[O-])cc2N=C(c2ccc(C(=O)O)cc2)c2cc3c(cc21)C(C)(C)CCC3(C)C [1K19, HX531] | 245 ± 151 | 
Nc1c(C(=O)O)c2nc3c(C(=O)O)cccc3oc-2cc1=O [1O03, Cinnabarinic acid] | 14.6 ± 8.23 | 

Second part, the compound after the results:

Kd [1] [µM] | Kd [2] [µM] | Structure (SMILES)
8.37 ± 4.42 |  | CNc1nc2ccccc2n2c(-c3ccc(O)c(O)c3)cnc12 [2B06, EAPB 02303]
236 ± 110 | 181 ± 53 | Cc1nc(C#Cc2ccnc(Cl)c2)c(C)n1-c1ccc(OC(F)(F)F)cc1 [2B10, CTEP]
283 ± 398 |  | CC(C)=CCC/C(C)=C/CC/C(C)=C/C=C/C(C)=C/C(=O)O [2L10, Peretinoin]

— paper doi:10.1101/2025.05.27.656499v1 (biorxiv, 2025)
